Laboratory results reported in ChEMBL document CHEMBL1201862, “PubChem BioAssay data set” (2004).
The source made the active and inactive calls.

What was measured:
[1] = molecular target: Melanocortin receptor 4 (Homo sapiens, UniProt P32245); assay: inhibitors of MC4R cAMP signaling – cell-based, TR-FRET, biased antagonists, dose response (AID 602298); format: functional;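 note: antagonist potency against agonist-stimulated cAMP production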
[2] = molecular target: Neurotensin receptor type 1 (Homo sapiens, UniProt P30989); format: functional;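 note: Image-based confirmatory dose-response assay measuring agonist activity at NTR1; NTR1-expressing U2OS osteosarcoma cells imaged for beta-arrestin GFP spot formation; agonist potency where compounds increase beta-arrestin recruitment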
Sequence of Neurotensin receptor type 1 (P30989 whole entry): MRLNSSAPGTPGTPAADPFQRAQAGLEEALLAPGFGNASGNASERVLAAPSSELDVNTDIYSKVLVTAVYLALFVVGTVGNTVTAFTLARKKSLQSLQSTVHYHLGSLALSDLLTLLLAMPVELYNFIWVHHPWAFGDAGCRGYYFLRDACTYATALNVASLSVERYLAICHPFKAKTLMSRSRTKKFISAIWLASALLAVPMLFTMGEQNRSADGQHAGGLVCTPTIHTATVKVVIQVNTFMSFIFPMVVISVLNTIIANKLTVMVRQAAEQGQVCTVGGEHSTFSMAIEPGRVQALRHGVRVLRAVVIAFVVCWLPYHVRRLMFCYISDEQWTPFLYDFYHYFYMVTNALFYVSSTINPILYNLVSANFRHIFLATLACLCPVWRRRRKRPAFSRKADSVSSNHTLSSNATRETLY

[3] = cAMP pathway inhibition in counterscreen cell line – TR-FRET cAMP detection, counter-screen for MC4R biased antagonist project, dose response (AID 602305); format: functional, cell-based;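 note: U2OS cells stimulated with forskolin near its EC80 as the cAMP inducer; potency is for inhibition of forskolin-stimulated cAMP signaling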
[4] = system: HEK293; assay: NOD2 signaling inhibitors in MDP-stimulated cells, cell-based, uHTS, luminescence (AID 2001); format: functional; conditions: Homo sapiens
[5] = system: HEK293; assay: inhibition of NOD1-driven NF-kB reporter – cell-based, luminescence, uHTS, primary screen (AID 1578); format: functional; conditions: Homo sapiens
[6] = molecular target: T1, Protein skinhead-1 (Caenorhabditis elegans, UniProt P34707); format: functional
T1 sequence (P34707 whole entry): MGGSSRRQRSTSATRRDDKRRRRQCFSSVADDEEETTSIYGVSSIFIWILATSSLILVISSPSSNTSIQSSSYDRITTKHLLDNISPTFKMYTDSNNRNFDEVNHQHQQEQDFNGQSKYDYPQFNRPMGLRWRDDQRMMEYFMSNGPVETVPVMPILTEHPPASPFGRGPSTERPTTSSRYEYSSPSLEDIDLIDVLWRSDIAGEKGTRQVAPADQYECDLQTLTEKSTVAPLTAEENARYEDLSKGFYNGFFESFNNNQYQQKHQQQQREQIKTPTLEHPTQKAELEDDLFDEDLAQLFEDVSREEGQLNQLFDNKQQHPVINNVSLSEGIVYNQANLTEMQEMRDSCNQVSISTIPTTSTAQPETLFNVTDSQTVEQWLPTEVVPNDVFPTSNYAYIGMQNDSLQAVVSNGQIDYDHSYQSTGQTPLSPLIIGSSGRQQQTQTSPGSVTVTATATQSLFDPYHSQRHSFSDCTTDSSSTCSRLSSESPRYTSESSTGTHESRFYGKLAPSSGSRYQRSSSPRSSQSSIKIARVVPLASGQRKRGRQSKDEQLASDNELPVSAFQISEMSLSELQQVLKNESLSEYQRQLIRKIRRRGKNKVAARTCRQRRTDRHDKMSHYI

[7] = Luminescence Cell-Based Dose Retest to Confirm Inhibitors of Cancer Stem Cells. [Related pubchem assays (depositor defined):AID2717, AID2721]; format: functional; conditions: Homo sapiens
[8] = system: HEK293; assay: cells; format: functional, cell-based; conditions: Homo sapiens
[9] = system: HEK293; assay: cells; format: functional, cell-based; conditions: Homo sapiens; remark: listed apart in the source
[10] = molecular target: T2, Acyl-homoserine lactone acylase PvdQ (Pseudomonas aeruginosa (strain LESB58), UniProt Q9I194); assay: PvdQ acylase enzyme activity blockers – biochemical, fluorescence, plate reader and imaging, cherry-picks, dose response (AID 493231)
T2 sequence (Q9I194 whole entry): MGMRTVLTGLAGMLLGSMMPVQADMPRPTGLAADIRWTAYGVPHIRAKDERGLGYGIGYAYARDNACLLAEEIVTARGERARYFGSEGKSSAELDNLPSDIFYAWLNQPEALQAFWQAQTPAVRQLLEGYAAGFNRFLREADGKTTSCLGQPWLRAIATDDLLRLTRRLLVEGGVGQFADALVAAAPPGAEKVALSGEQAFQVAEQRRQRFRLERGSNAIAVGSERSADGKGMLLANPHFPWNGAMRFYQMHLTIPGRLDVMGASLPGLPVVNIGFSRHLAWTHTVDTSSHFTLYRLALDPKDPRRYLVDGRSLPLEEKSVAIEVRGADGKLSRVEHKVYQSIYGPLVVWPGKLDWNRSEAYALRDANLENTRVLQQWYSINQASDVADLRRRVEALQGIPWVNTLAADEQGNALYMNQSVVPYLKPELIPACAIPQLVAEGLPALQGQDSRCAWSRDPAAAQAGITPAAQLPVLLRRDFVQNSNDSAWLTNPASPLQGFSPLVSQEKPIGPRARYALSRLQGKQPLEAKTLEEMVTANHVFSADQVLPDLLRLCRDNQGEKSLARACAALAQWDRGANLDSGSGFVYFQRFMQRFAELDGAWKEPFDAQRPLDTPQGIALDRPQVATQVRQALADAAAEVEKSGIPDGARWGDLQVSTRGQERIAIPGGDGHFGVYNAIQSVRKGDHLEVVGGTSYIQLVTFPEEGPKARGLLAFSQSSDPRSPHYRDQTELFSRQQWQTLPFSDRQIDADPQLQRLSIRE

[11] = molecular target: Alkaline phosphatase, placental type (Homo sapiens, UniProt P05187); assay: human placental alkaline phosphatase inhibition – biochemical, luminescence, confirmation (AID 1512); format: functional
Sequence of Alkaline phosphatase, placental type (P05187 whole entry): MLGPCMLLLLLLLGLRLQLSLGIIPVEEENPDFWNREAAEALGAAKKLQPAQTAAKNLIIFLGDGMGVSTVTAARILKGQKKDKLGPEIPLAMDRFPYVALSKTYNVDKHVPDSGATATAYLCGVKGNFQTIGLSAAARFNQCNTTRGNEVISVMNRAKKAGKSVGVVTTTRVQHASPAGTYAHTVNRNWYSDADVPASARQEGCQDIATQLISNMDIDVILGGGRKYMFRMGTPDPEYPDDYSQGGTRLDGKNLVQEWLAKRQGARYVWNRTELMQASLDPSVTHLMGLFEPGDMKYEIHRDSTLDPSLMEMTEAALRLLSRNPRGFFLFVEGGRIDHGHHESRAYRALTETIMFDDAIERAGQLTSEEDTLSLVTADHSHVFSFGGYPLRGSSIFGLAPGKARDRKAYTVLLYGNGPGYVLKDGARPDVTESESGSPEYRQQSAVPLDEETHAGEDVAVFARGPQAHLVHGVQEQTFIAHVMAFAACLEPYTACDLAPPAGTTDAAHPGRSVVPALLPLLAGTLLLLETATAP

[12] = microbe, parasite or virus in culture; format: functional; conditions: Mycobacterium tuberculosis
[13] = molecular target: Beta-galactosidase (Escherichia coli, UniProt Q8VNN2); assay: detection-enzyme interference by beta-gal modulators – biochemical, E. coli enzyme, set 3, artefact control for CCR6 antagonist project, dose response (AID 504712); format: functional
Sequence of Beta-galactosidase (Q8VNN2 whole entry): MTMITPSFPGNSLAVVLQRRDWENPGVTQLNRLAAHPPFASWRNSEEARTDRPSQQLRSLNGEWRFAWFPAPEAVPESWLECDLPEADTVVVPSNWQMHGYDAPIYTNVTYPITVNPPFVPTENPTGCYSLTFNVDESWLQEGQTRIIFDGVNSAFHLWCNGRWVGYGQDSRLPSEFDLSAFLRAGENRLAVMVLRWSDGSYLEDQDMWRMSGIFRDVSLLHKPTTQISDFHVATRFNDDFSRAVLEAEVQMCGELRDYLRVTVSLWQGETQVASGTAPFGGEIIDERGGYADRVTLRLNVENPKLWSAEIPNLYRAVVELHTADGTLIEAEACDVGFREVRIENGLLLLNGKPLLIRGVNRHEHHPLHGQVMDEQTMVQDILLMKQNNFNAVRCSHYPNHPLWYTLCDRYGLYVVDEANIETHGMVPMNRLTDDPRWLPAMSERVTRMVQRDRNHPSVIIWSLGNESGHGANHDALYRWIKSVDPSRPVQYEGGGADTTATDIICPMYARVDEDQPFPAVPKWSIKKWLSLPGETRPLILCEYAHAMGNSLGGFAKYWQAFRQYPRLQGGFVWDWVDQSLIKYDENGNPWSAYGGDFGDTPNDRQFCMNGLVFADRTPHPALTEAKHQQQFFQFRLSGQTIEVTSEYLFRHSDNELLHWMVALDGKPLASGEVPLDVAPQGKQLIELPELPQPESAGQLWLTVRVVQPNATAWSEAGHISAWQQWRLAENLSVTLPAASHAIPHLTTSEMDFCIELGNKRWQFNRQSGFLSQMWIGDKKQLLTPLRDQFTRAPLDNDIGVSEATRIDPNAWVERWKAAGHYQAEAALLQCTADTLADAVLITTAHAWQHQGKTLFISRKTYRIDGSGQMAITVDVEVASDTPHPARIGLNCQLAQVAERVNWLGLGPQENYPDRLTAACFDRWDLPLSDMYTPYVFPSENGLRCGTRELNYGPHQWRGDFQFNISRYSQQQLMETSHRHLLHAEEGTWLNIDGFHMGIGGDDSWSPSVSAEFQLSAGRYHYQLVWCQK

[14] = molecular target: T3, C-C chemokine receptor type 6 (Homo sapiens, UniProt P51684); assay: antagonism of CCR6 beta-arrestin recruitment – cell-based, luminescent beta-arrestin readout, dose response (AID 504728); format: functional
T3 sequence (P51684 whole entry): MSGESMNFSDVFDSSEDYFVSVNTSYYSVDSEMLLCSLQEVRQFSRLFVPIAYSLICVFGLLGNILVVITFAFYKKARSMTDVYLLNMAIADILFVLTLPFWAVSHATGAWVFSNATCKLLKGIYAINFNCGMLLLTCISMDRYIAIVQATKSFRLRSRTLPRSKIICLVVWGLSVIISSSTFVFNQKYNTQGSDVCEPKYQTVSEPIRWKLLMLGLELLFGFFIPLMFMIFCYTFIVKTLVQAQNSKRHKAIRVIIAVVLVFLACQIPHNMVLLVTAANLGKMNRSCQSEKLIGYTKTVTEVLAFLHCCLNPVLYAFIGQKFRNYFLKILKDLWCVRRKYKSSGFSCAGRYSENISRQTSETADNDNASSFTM

[15] = molecular target: Large T antigen (Simian virus 40, UniProt P03070); format: functional, Betapolyomavirus macacae;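 note: Confirmatory-stage PubChem screen for compounds that inhibit SV40 T antigen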
Sequence of Large T antigen (P03070 whole entry): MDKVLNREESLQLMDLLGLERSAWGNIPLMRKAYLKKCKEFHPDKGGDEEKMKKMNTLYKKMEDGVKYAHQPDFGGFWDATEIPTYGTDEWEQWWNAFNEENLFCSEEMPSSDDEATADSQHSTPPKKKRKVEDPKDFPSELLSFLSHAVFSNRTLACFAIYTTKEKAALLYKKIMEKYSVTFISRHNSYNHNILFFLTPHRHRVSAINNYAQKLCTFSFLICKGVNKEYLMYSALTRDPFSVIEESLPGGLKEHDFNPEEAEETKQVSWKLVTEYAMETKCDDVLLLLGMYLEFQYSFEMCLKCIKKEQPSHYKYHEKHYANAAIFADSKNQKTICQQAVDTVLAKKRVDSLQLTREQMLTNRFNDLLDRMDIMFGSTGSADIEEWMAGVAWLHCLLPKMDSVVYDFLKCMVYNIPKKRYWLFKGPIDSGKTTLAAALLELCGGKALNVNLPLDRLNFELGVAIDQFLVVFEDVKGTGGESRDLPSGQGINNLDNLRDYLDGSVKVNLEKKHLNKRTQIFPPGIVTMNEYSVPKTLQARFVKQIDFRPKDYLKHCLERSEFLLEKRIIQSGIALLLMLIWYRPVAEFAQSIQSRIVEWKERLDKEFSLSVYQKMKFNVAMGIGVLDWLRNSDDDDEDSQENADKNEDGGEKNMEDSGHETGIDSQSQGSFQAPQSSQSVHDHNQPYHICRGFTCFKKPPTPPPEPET

[16] = molecular target: Glucose-6-phosphate 1-dehydrogenase (Homo sapiens, UniProt P11413); assay: inhibition of Homo sapiens G6PD, dose series – biochemical, fluorescence, selectivity assay for P. falciparum G6PD inhibitor project, dose response (AID 504792); format: functional
[17] = molecular target: DNA dC->dU-editing enzyme APOBEC-3A (Homo sapiens, UniProt P31941); assay: A3A deaminase inhibition for selectivity – biochemical, dose response (AID 504722); format: functional
Sequence of DNA dC->dU-editing enzyme APOBEC-3A (P31941 whole entry): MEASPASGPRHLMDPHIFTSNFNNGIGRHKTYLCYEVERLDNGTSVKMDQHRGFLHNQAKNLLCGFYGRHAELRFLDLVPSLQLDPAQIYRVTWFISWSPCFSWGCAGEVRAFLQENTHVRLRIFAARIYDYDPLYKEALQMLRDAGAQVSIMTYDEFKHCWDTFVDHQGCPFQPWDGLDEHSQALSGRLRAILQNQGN

[18] = molecular target: DNA dC->dU-editing enzyme APOBEC-3G (Homo sapiens, UniProt Q9HC16); assay: Dose Response confirmation of small molecule APOBEC3G DNA Deaminase Inhibitors via a fluorescence-based single-stranded DNA deaminase assay. [Related pubchem assays (depositor defined):AID493012, AID493028]; format: functional
Sequence of DNA dC->dU-editing enzyme APOBEC-3G (Q9HC16 whole entry): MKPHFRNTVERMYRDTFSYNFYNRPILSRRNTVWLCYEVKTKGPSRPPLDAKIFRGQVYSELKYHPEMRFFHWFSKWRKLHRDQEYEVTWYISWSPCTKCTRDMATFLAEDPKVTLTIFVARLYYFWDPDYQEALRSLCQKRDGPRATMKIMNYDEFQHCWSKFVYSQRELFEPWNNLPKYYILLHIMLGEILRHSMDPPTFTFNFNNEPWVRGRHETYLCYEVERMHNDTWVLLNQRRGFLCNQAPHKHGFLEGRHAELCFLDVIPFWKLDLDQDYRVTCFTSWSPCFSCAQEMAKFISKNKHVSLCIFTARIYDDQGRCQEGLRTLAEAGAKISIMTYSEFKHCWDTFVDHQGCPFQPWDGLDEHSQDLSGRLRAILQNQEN

[19] = molecular target: Glyceraldehyde-3-phosphate dehydrogenase (Homo sapiens, UniProt P04406)
Sequence of Glyceraldehyde-3-phosphate dehydrogenase (P04406 whole entry): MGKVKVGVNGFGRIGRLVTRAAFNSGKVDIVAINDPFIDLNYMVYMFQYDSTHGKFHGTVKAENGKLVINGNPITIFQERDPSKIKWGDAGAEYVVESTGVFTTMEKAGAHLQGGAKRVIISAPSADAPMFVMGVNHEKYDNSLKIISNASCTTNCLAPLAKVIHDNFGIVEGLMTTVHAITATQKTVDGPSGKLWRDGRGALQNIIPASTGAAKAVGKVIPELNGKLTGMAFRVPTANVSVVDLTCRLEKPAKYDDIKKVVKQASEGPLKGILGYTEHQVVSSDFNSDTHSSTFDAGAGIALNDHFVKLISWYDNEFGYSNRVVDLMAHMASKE

[20] = molecular target: Luciferin 4-monooxygenase (Photinus pyralis, UniProt P08659); assay: Counter Screen for Luciferase-based Assay Positives. [Related pubchem assays: 620, 618, 411 ]
Sequence of Luciferin 4-monooxygenase (P08659 whole entry): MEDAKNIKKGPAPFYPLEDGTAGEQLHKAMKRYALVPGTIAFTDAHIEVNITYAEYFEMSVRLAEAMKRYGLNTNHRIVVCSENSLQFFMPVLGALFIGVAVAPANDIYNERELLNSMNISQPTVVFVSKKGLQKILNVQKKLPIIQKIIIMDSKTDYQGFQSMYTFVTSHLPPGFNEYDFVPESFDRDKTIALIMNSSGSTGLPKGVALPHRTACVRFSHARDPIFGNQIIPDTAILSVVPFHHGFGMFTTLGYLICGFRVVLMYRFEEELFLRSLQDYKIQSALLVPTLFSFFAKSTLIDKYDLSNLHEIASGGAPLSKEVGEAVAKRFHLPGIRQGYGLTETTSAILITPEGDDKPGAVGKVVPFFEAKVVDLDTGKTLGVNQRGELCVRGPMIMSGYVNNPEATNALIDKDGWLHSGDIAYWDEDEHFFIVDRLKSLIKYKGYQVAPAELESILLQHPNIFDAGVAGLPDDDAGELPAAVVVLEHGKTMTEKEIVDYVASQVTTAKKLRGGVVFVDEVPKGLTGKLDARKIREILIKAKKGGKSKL

[21] = system: HT-1080; assay: HT1080 cell viability loss – fluorescence readout (AID 620); format: functional, cell-based; conditions: Homo sapiens
[22] = HEK-293T cell viability reduction – luminescence, B-cell screen hits, cytotoxicity control for BCR NF-kB inhibitor project, dose response (AID 489021); format: functional, cell-based;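 note: HEK-293T cells carrying an NF-kB luciferase reporter; cells exposed to compound for about 14 hours before viability readout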
[23] = molecular target: T4, Heat shock factor protein 1 (Mus musculus, UniProt P38532); assay: decrease of HSF1-responsive luciferase luminescence – cell-based, NIH3T3, dose retest, confirmation (AID 2382); format: functional;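 note: NIH3T3 fibroblasts with HSF1-driven luciferase reporter stressed by proteasome inhibitor MG132; luminescence from HSF1-driven luciferase expression after 8 hours of MG132 stress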
T4 sequence (P38532 whole entry): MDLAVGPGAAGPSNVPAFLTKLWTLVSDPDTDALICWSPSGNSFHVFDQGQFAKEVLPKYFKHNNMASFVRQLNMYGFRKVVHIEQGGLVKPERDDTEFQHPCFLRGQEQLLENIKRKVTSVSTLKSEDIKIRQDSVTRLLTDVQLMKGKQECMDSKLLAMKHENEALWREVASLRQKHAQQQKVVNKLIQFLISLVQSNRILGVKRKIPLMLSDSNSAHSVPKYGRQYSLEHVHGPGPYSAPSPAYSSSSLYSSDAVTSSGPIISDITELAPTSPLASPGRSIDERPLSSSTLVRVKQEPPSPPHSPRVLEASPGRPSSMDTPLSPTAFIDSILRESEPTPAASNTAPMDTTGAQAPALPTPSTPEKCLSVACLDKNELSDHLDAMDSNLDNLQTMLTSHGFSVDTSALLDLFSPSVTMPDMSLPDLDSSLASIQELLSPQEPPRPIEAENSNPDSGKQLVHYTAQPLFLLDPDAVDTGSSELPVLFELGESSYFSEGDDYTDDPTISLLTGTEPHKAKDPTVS

[24] = blockers of bursicon-stimulated LGR2 cAMP reporter – cell-based, HEK293, CRE-luciferase reporter, cherry pick, set 2, dose response (AID 743343); format: functional;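 note: transfected cells were stimulated with diluted bursicon conditioned medium after compound addition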
[25] = viability loss in HEK293 cells – cell-based, plate reader, cherry-picked samples, cytotoxicity control, dose response (AID 743446); format: functional
[26] = toxicity toward HepG2 liver cells – cell-based, plate reader, cherry-pick, antagonist series, cytotoxicity control, dose response (AID 743416); format: functional
[27] = blockade of melanocortin 4 receptor signaling – cell-based, plate reader, cherry pick, counter-screen for LGR2 antagonist project, dose response (AID 743444); format: functional;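 note: transfected HEK 293 cells stimulated with alpha-MSH peptide; potency of inhibitors of the alpha-MSH evoked signal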

Sequence of Melanocortin receptor 4 (P32245 whole entry): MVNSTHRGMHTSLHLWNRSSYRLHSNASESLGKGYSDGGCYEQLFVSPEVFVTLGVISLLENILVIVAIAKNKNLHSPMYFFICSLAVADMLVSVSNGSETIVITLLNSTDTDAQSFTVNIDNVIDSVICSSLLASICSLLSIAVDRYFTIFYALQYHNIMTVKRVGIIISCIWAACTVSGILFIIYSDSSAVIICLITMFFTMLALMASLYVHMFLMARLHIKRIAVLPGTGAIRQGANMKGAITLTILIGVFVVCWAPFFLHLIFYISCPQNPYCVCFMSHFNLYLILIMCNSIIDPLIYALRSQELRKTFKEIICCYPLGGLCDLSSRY

CCCOc1ccc(C(=O)c2ccccc2C(=O)OC2CCOC2=O)cc1OCCC (configuration not stated)
IC50 [1]: > 64.6 µM (inactive)
EC50 [2]: 19.8 µM (active)
IC50 [3]: > 64.6 µM (inactive)

Clc1ccc(Nc2ncnc3ccc(Br)cc23)cc1
IC50 [4]: 1.47 µM (active)
EC50 [5]: 3.06 µM (active)
IC50 [6]: > 100 µM (inactive)
AC50 [7]: 4.4 µM (active)
IC50 [8]: 0.95 µM (active)
IC50 [9]: > 20 µM (inactive)
AC50 [10]: 37.8 µM (active)

c1ccc(Cn2c(CNc3nc4ccccc4n3CCN3CCCCC3)nc3ccccc32)cc1
IC50 [1]: > 64.6 µM (inactive)
IC50 [11]: > 100 µM (inactive)
CC50 [12]: 27.1 µM (active)
IC50 [3]: > 64.6 µM (inactive)

COc1ccccc1N1C(=O)C=C(Sc2nc(C)cc(C)n2)C1=O
IC50 [13]: > 66.6 µM (inactive)
IC50 [14]: > 66.6 µM (inactive)
IC50 [15]: 24.3 µM (active)
IC50 [16]: > 80 µM (inactive)

Sc1cnc2ccccc2n1
IC50 [17]: > 100 µM (inactive)
IC50 [18]: 7.85 µM (active)

O=C(O)CCSc1nc2ccccc2s1
IC50 [19]: > 100 µM (not active)
EC50 [20]: > 100 µM (not active)
EC50 [21]: > 50 µM (not active)
IC50 [22]: > 80 µM (inactive)
EC50 [23]: 6.83 µM (active)

CC(C)(C)c1ccc(-c2nc(-c3ccncc3)no2)cc1
AC50 [24]: 12.9 µM (active)
EC50 [20]: 0.57 µM (active)
EC50 [21]: > 50 µM (not active)
AC50 [25]: > 52 µM (inactive)
CC50 [12]: 34.2 µM (active)
AC50 [26]: 30.1 µM (active)
AC50 [27]: 20.8 µM (active)
